Experimental data: patent US11413278B2, “Compounds and methods for promoting stress resistance” (priority 2015, dated 2022)
Read-outs that look alike come from different tables or passages of the source.

Legend:
[1] = test system: LC3A/B puncta; assay: Autophagy induction analysis (LC3A/B puncta immuno-staining); format: cell-based, human; conditions: for Assay 15: Potential autophagy induction by LC3A/B puncta assays: 10 uM & 20 uM, YES/NO; for Exp. 2, normalized change of nuclei numbers (Less cells): 20X objective, lysosomal LAMP co-staining
Method: Immuno-staining of LC3A/B was performed, following a standard protocol. Briefly, WI-38 cells were treated with small molecules for 24 hrs, and then processed and incubated with primary antibody (Cell Signaling, rabbit anti-LC3A/B, 1:100) overnight at 4° C. Next day, samples were processed and incubated with fluorophore-conjugated secondary antibody and further incubated with DAPI dye. Images were collected on the INCell Analyzer 2000 (Experiment 1: 10× objective; Experiment 2: 20× objective) and analyzed with the Developer Toolbox. For Experiment 2, lysosomal-associated membrane protein 2 (LAMP2) was also counter-stained to identify the LC3A/B puncta that colocalize with lysosome and the data were analyzed by the MetaXpress software (Molecular Devices, version 5.1). The intensity of total (Exp. 1) or LAMP2-colocalized LC3A/B puncta (Exp. 2) was normalized the total numbers nuclei in the fields.
These assays were performed, following the same procedures to analyze DNA-damage markers. WI-38 cells were incubated with small molecules for 24 hrs, and then processed and incubated with primary antibody (rabbit anti-LC3A/B, 1:100) overnight at 4 C. The next day, samples were processed and incubated with fluorophore-conjugated secondary antibody and further incubated with DAPI dye. Images were collected on an INCell Analyzer 2000 and analyzed with the Developer software. Total LC3A/B puncta intensity was normalized the total numbers of DAPI-positive nuclei.

[2] = test system: WI-38 cells; assay: Long-term effects on cell viability (5 days, ATP; morphology, PI imaging); format: cell-based; conditions: 10 μM; for Luminescence signal for ATP measurement, day-1 Average / Luminescence signal for ATP measurement, day-2 Average / Luminescence signal for ATP measurement, day-3 Average / Luminescence signal for ATP measurement, day-4 Average / Luminescence signal for ATP measurement, day-5 Average / viability at 10 µM: Batch 1; for Luminescence signal for ATP measurement, day-1 Average / Luminescence signal for ATP measurement, day-2 Average / Luminescence signal for ATP measurement, day-3 Average / Luminescence signal for ATP measurement, day-4 Average / Luminescence signal for ATP measurement, day-5 Average: n = 6, day-0 luminescence = 320956 ± 24708; for viability at 10 µM: Homo sapiens, WI-38, 120 h, DMSO ctrl = 100.0%, read-out: ATP luminescence by day-5 normalized; for Luminescence signal for ATP measurement, day-5 Average / viability at 10 µM: day-5;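 for Luminescence signal for ATP measurement, day-2 Average: compounds at 10 µM with ATP read daily over 5 days of treatment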;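 for Luminescence signal for ATP measurement, day-3 Average: compounds at 10 µM with ATP read daily over 5 days of treatment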;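 for Luminescence signal for ATP measurement, day-4 Average: compounds at 10 µM with ATP read daily over 5 days of treatment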;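 for Luminescence signal for ATP measurement, day-5 Average: compounds at 10 µM with ATP read daily over 5 days of treatment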
Method: In addition, cell death was scored by PI-imaging on day 2 and day 5 of treatment.
Applicants introduced molecules (at 10 uM final concentration) to WI-38 fibroblasts and then assayed cell viability (through ATP measurement) everyday, during a course of 5 days of continuous treatment. […] Applicants also examined the morphology and scored cell death (propidium iodide staining) for cells treated with the above molecules. Of these 14 molecules, some appeared to cause cell toxicity. […] Despite the observed long-term toxicity, these molecules are still interesting as they may act as anti-tumor agents in vivo, should they have more pronounced cytotoxicity on highly proliferative tumor cells. When cells were incubated with these molecules for ˜24 hrs and then subject to hydrogen peroxide for 3 hrs, these molecules are all protective. […] Some of these small molecules may be toxic by themselves under certain conditions, but by inducing protective mechanisms, they may trigger “hormesis” and therefore protect cells from oxidative stress.

[3] = test system: NRF2; assay: qPCR analysis of NRF2-regulated genes; format: cell-based, human; conditions: for fold induction at 10 µM: Homo sapiens
Procedure, shortened: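 Expression of HMOX1, NQO1, GCLC and GSTM1 measured by qPCR relative to B2M, PPIA and GAPDH. Cells were WI-38 fibroblasts exposed 24 hrs to 10 μM compound, with RNA and cDNA prepared via Cells-to-Ct. Where stated, cells were first transfected 36 hrs with FOXO3 or NRF2 siRNA at 10 nM.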

[4] = 24 h, Assay 12(o), at 10 uM, qPCR, read-out: Induction of NRF2-regulated genes: HMOX1 normalized fold-change
[5] = 24 h, Assay 12(o), at 10 uM, qPCR, read-out: Induction of NRF2-regulated genes: NQO1 normalized fold-change
[6] = rounded fold change, WI-38 cells, 10 μM, 24 hrs (RP11 for Gr-1D, RP29 for Gr-4D), read-out: Summary of effects on NRF2-regulated genes: HMOX1
[7] = rounded fold change, WI-38 cells, 10 μM, 24 hrs (RP29 for Gr-4D), read-out: Summary of effects on NRF2-regulated genes: NQO1
[8] = 10 μM, 24 hrs, WI-38, read-out: Expression of at least two NRF2 target genes
[9] = 10 μM, 24 hrs, WI-38 cells, qPCR, normalized to B2M, n = 4, read-out: HMOX1 expression, normalized fold change (NRF2-regulated gene)
[10] = 10 μM, 24 hrs, WI-38 cells, qPCR, normalized to B2M, n = 4, read-out: NQO1 expression, normalized fold change (NRF2-regulated gene)
[11] = WI-38 cells, 10 μM, 24 hrs, n=4, qPCR normalized by B2M, read-out: GCLC Normalized fold change
[12] = WI-38 cells, 10 μM, 24 hrs, n=4, qPCR normalized by B2M, read-out: GSTM1 Normalized fold change
[13] = WI-38 cells, 10 μM, 24 hrs, n=4, qPCR normalized by B2M, read-out: HMOX1 Normalized fold change
[14] = WI-38 cells, 10 μM, 24 hrs, n=4, qPCR normalized by B2M, read-out: NQO1 Normalized fold change
[15] = 24 h, Assay 12(o), at 10 uM, qPCR, read-out: Induction of NRF2-regulated genes: GCLC normalized fold-change
[16] = 24 h, Assay 12(o), at 10 uM, qPCR, read-out: Induction of NRF2-regulated genes: GSTM1 normalized fold-change
[17] = rounded fold change, WI-38 cells, 10 μM, 24 hrs (RP29 for Gr-4D), read-out: Summary of effects on NRF2-regulated genes: GSTM1
[18] = rounded fold change, WI-38 cells, 10 μM, 24 hrs, read-out: Summary of effects on NRF2-regulated genes: GCLC
[19] = 10 μM, 24 hrs, WI-38 cells, qPCR, normalized to B2M, n = 4, read-out: GCLC expression, normalized fold change (NRF2-regulated gene)
[20] = 10 μM, 24 hrs, WI-38 cells, qPCR, normalized to B2M, n = 4, read-out: GSTM1 expression, normalized fold change (NRF2-regulated gene)
[21] = Exp. 1, 10 μM, 10X objective, WI-38 cells

SMILES | H = Potential Autophagy Induction ([1]; score) | H = Potential Autophagy Induction ([1]; summary score) | Luminescence signal for ATP measurement, day-1 Average [2] | Luminescence signal for ATP measurement, day-2 Average [2] | Luminescence signal for ATP measurement, day-3 Average [2] | Luminescence signal for ATP measurement, day-4 Average [2] | Luminescence signal for ATP measurement, day-5 Average [2] | viability at 10 µM [2] | O = Potential toxicity ([2]; human, 5 days) | Q = Potential toxicity ([2]; human, 5 days) | F = Potential NRF2 Activation ([3]; 2-point score) | fold induction at 10 µM [3, 4] | fold induction at 10 µM [3, 6] | fold induction at 10 µM [3, 9] | fold induction at 10 µM [3, 11] | fold induction at 10 µM [3, 12] | fold induction at 10 µM [3, 13] | fold induction at 10 µM [3, 14] | F = Potential NRF2 Activation ([3]; summary score) | fold induction at 10 µM [3, 15] | further results
O=C(/C=C/c1cn(-c2ccccc2)nc1-c1cccnc1)c1ccccc1 [Gr-6B] | 0 | 0 | 467756 | 641901 | 736245 | 969598 | 953988 | 92.9% | 0 | 0 | 2 | 1.88 | 1.88 | 1.88 | 0.797 | 1.22 | 1.88 | 1.52 | 2 |  | Potential NRF2 Activation (>=2 target genes induced, by >=1.5-fold) ([3]; Assay 13(p)): YES; fold induction at 10 µM [3, 5]: 1.52; fold induction at 10 µM [3, 7]: 1.52; fold induction at 10 µM [3, 8]: > 1.5; fold induction at 10 µM [3, 10]: 1.52
COc1ccc(/C=C2\SC(=N)N(c3nccs3)C2=O)cc1 [O21] | 0 | 0 | 460366 | 542268 | 557236 | 677875 | 550651 | 53.6% | 1 | 1 | 0 | 3.02 | 3.02 | 3.02 | 0.512 | 1.25 | 3.02 | 0.836 | 0 | 0.51 | fold induction at 10 µM [3, 16]: 1.25; fold induction at 10 µM [3, 17]: 1.25; fold induction at 10 µM [3, 18]: 0.51; fold induction at 10 µM [3, 19]: 0.51; fold induction at 10 µM [3, 20]: 1.25
COc1cccc(/C=C2\CN(C)C/C(=C\c3cccc(OC)c3OC)C2=O)c1OC [O23] | 1 | 1 | 329880 | 149226 | 52831 | 53125 | 52771 | 5.1% | 1 | 1 | 0 | 12.9 | 12.9 | 12.9 | 0.668 | 0.595 | 12.9 | 0.477 | 0 | 0.67 | Assay 15: Potential autophagy induction by LC3A/B puncta assays [1]: YES; fold induction at 10 µM [3, 16]: 0.6; fold induction at 10 µM [3, 5]: 0.48; fold induction at 10 µM [3, 17]: 0.6; fold induction at 10 µM [3, 7]: 0.48; fold induction at 10 µM [3, 18]: 0.67; fold induction at 10 µM [3, 19]: 0.67; fold induction at 10 µM [3, 20]: 0.6; fold induction at 10 µM [3, 10]: 0.48
NS(=O)(=O)c1ccc(NC(=O)c2ccc([N+](=O)[O-])o2)cc1 [Gr-1A] | 1 | 1 | 477461 | 610735 | 739676 | 878508 | 943836 | 91.9% | 0 | 0 | 2 |  |  |  | 1.61 | 2.53 | 0.973 | 1.79 | 0 | 1.48 | Assay 15: Potential autophagy induction by LC3A/B puncta assays [1]: YES; Exp. 1, induction of LC3A/B puncta (Up), total intensity normalized by total number of nuclei in the fields [1, 21]: p < 0.001; Up, 1876%,; Exp. 1, normalized change of nuclei numbers (Less cells) [1, 21]: Less cells, 55%,; Exp. 2, normalized change of nuclei numbers (Less cells) ([1]; Exp. 2, 10 μM, WI-38 cells): Less cells, 66%,; Exp. 2, normalized change of nuclei numbers (Less cells) ([1]; Exp. 2, 20 μM, WI-38 cells): Less cells, 57%,; Reduction of ATP content after 5 days of continuous incubation ([2]; human, 5 days): more than 40%; fold induction at 10 µM [3, 16]: 1.45; fold induction at 10 µM [3, 17]: 1.45; fold induction at 10 µM [3, 7]: 1.79; fold induction at 10 µM [3, 18]: 1.61; fold induction at 10 µM [3, 8]: > 1.5; fold induction at 10 µM [3, 19]: 1.61; fold induction at 10 µM [3, 20]: 1.45; fold induction at 10 µM [3, 10]: 1.79
N=C1S/C(=C\c2cn(-c3ccccc3)nc2-c2cccs2)C(=O)N1c1nccs1 [Gr-6C] | 0 | 0 | 435273 | 542716 | 574765 | 624471 | 548865 | 53.5% | 0 | 1 | 0 | 2.09 | 2.09 | 2.09 | 0.331 | 0.914 | 2.09 | 0.87 | 0 | 0.33 | fold induction at 10 µM [3, 18]: 0.33; fold induction at 10 µM [3, 19]: 0.33
